According to PubChem BioAssay (NCI):
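Cells were grown in 96-well plates and exposed to each compound for 48 hours at five concentrations; endpoints were interpolated linearly between bracketing concentrations, or set to the highest concentration if not reached. TGI is the concentration that stops growth completely.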

Tests used:
Assay in all cases: NCI-60 cell line screen, 48 h
SF-539 CNS = tested on: SF-539 CNS
SNB-75 CNS = tested on: SNB-75 CNS
EKVX NSCLC = tested on: EKVX NSCLC
SF-268 CNS = tested on: SF-268 CNS
SK-MEL-2 melanoma = tested on: SK-MEL-2 melanoma
HT29 colon = tested on: HT29 colon
COLO 205 colon = tested on: COLO 205 colon
HCT-15 colon = tested on: HCT-15 colon
786-0 renal = tested on: 786-0 renal
CAKI-1 renal = tested on: CAKI-1 renal
OVCAR-8 ovarian = tested on: OVCAR-8 ovarian
OVCAR-5 ovarian = tested on: OVCAR-5 ovarian
HL-60(TB) leukemia = tested on: HL-60(TB) leukemia
HCC-2998 colon = tested on: HCC-2998 colon
NCI-H226 lung = tested on: NCI-H226 lung
NCI-H23 lung = tested on: NCI-H23 lung
UO-31 renal = tested on: UO-31 renal
HS 578T breast = tested on: HS 578T breast
NCI-H460 lung = tested on: NCI-H460 lung
OVCAR-3 ovarian = tested on: OVCAR-3 ovarian
MDA-N = tested on: MDA-N
T-47D breast = tested on: T-47D breast
UACC-62 melanoma = tested on: UACC-62 melanoma
HOP-92 NSCLC = tested on: HOP-92 NSCLC
ACHN renal = tested on: ACHN renal
SF-295 CNS = tested on: SF-295 CNS
M14 melanoma = tested on: M14 melanoma
UACC-257 melanoma = tested on: UACC-257 melanoma
PC-3 prostate = tested on: PC-3 prostate
OVCAR-4 ovarian = tested on: OVCAR-4 ovarian
MCF7 breast = tested on: MCF7 breast
SW-620 colon = tested on: SW-620 colon
SK-MEL-28 melanoma = tested on: SK-MEL-28 melanoma
TK-10 renal = tested on: TK-10 renal
U251 CNS = tested on: U251 CNS
SR leukemia = tested on: SR leukemia
A549 NSCLC = tested on: A549 NSCLC
HOP-62 NSCLC = tested on: HOP-62 NSCLC
SK-MEL-5 melanoma = tested on: SK-MEL-5 melanoma
SNB-19 CNS = tested on: SNB-19 CNS
MDA-MB-231 breast = tested on: MDA-MB-231 breast
CCRF-CEM leukemia = tested on: CCRF-CEM leukemia
SN12C renal = tested on: SN12C renal
RXF 393 renal = tested on: RXF 393 renal
MDA-MB-435 = tested on: MDA-MB-435
KM12 colon = tested on: KM12 colon
SK-OV-3 ovarian = tested on: SK-OV-3 ovarian
MOLT-4 leukemia = tested on: MOLT-4 leukemia
NCI/ADR-RES ovarian = tested on: NCI/ADR-RES ovarian
BT-549 breast = tested on: BT-549 breast
HCT-116 colon = tested on: HCT-116 colon
RPMI-8226 leukemia = tested on: RPMI-8226 leukemia
IGROV1 ovarian = tested on: IGROV1 ovarian
A498 renal = tested on: A498 renal
MALME-3M melanoma = tested on: MALME-3M melanoma
LOX IMVI melanoma = tested on: LOX IMVI melanoma
K-562 leukemia = tested on: K-562 leukemia
DU-145 prostate = tested on: DU-145 prostate

Measured: TGI

CCOC(=O)N1CCC2(CC1)CC(=O)N(Nc1ccccc1)C2=O
> 100 µM: all assays above
